Laboratory results as given in article PMC9884426, “A phase 1 clinical trial of the repurposable acetyllysine mimetic, n-methyl-2-pyrrolidone (NMP), in relapsed or refractory multiple myeloma” (Clinical Epigenetics, 2023).
Like-named read-outs stand apart in the source and are kept apart here.

Assay: Plasma pharmacokinetics of oral NMP by LCMSMS
Format: in vivo, human
Details: for AUC / Cmax / half-life / Tmax: human, po
Procedure: Blood samples were taken from patients before NMP and at one, two, four, eight and 24 h post dose. Plasma samples (20 μl) were prepared by adding five volumes of methanol containing deuterated internal standard. The samples were vortexed then centrifuged, and the supernatant was transferred to a vial and injected onto the LCMSMS. The LCMSMS system consisted of a Shimadzu UHPLC with a SCIEX 6500QTrap, a KinetexC18 (3 × 50 mm, 2.6 μm) column and using a gradient of 0.1% formic acid and acetonitrile. The initial conditions were 0.5 ml/min and 2% acetonitrile; this was held for 1 min then increased to 20% acetonitrile at 2 min then increased to 70% acetonitrile and held for 0.5 min. Equilibration time was 0.5 min. MRMs for NMP were 100 → 58, 100 → 69, 100 → 41 and for the internal standard d9NMP 109 → 62, […]. PK analysis was performed using Pkanalix (version 2021R1. Antony, France: Lixoft SAS, 2021).

[1] = all dose levels 25-800 mg oral, N = 28 profiles, plasma

CN1CCCC1=O [NMP, N-methyl-2-pyrrolidone]
Maximum plasma concentration (Cmax), highest achieved (800 mg dose, oral, one patient): 16700 ng/mL | CL/F, Overall Average [1]: 19.25 L⋅h⁻¹ | Half-life, Overall Average [1]: ~ 1.5 h | V/F, Overall Average [1]: 39.49 L | Tmax, Overall Average (all dose levels 25-800 mg oral, N = 29 profiles, plasma): 33 min | single NMP dose predicted to be required to attain BET-inhibitory peak plasma concentrations (e.g. > 1 mM peak plasma, based on NMP's PK): more than 4.5 g | AUC (plasma, 25 mg, oral 25 mg, patient RMH-01 occasion 6, plasma, read-out: AUC): 1500 ng·h/mL | Cmax (plasma, 25 mg, oral 25 mg, patient RMH-01 occasion 6, plasma, read-out: Cmax): 930 ng/mL | half-life (plasma, 25 mg, oral 25 mg, patient RMH-01 occasion 6, plasma, read-out: Half-life (converted)): 52.2 min | Tmax (plasma, 25 mg, oral 25 mg, patient RMH-01 occasion 6, plasma, read-out: Tmax): 30 min | AUC (plasma, 50 mg, oral 50 mg, average of N = 5 profiles, plasma, read-out: AUC, Average): 2170 ng·h/mL | Cmax (plasma, 50 mg, oral 50 mg, average of N = 5 profiles, plasma, read-out: Cmax, Average): 1260 ng/mL | half-life (plasma, 50 mg, oral 50 mg, average of N = 5 profiles, plasma, read-out: Half-life, Average (converted)): 64.8 min | Tmax (plasma, 50 mg, oral 50 mg, average of N = 5 profiles, plasma, read-out: Tmax, Average): 30 min | AUC (plasma, 50 mg, oral 50 mg, individual profiles, patient RMH-01 occasions 1-5, plasma, read-out: AUC): 2830 ng·h/mL | Cmax (plasma, 50 mg, oral 50 mg, individual profiles, patient RMH-01 occasions 1-5, plasma, read-out: Cmax): 1720 ng/mL | half-life (plasma, 50 mg, oral 50 mg, individual profiles, patient RMH-01 occasions 1-5, plasma, read-out: Half-life (converted)): 72.6 min | Tmax (plasma, 50 mg, oral 50 mg, individual profiles, patient RMH-01 occasions 1-5, plasma, read-out: Tmax): 30 min | AUC (plasma, 100 mg, oral 100 mg, average of N = 5 profiles, plasma, read-out: AUC, Average): 7130 ng·h/mL | Cmax (plasma, 100 mg, oral 100 mg, average of N = 5 profiles, plasma, read-out: Cmax, Average): 2570 ng/mL | half-life (plasma, 100 mg, oral 100 mg, average of N = 5 profiles, plasma, read-out: Half-life, Average (converted)): 110 min | Tmax (plasma, 100 mg, oral 100 mg, average of N = 5 profiles, plasma, read-out: Tmax, Average): 30 min | AUC (plasma, 100 mg, oral 100 mg, individual profiles, patient RMH-02 occasions 1-5, plasma, read-out: AUC): 6970 ng·h/mL | Cmax (plasma, 100 mg, oral 100 mg, individual profiles, patient RMH-02 occasions 1-5, plasma, read-out: Cmax): 2730 ng/mL | half-life (plasma, 100 mg, oral 100 mg, individual profiles, patient RMH-02 occasions 1-5, plasma, read-out: Half-life (converted)): 101 min | Tmax (plasma, 100 mg, oral 100 mg, individual profiles, patient RMH-02 occasions 1-5, plasma, read-out: Tmax): 30 min | half-life (plasma, 200 mg, oral 200 mg, average of N = 8 profiles, plasma, read-out: Half-life, Average (converted)): 88.2 min | AUC (plasma, 200 mg, oral 200 mg, average of N = 9 profiles, plasma, read-out: AUC, Average): 9510 ng·h/mL | Cmax (plasma, 200 mg, oral 200 mg, average of N = 9 profiles, plasma, read-out: Cmax, Average): 4050 ng/mL | Tmax (plasma, 200 mg, oral 200 mg, average of N = 9 profiles, plasma, read-out: Tmax, Average): 33.6 min | half-life (plasma, 200 mg, oral 200 mg, individual profiles (PMC-03, MON-04, MON-06, MON-07, PMC-08), plasma, read-out: Half-life (converted)): 84 min | Tmax (plasma, 200 mg, oral 200 mg, individual profiles (PMC-03, MON-04, PMC-05, MON-06, MON-07, PMC-08), plasma, read-out: Tmax): 30 min | AUC (plasma, 300 mg, oral 300 mg, average of N = 3 profiles, plasma, read-out: AUC, Average): 22200 ng·h/mL | Cmax (plasma, 300 mg, oral 300 mg, average of N = 3 profiles, plasma, read-out: Cmax, Average): 8060 ng/mL | half-life (plasma, 300 mg, oral 300 mg, average of N = 3 profiles, plasma, read-out: Half-life, Average (converted)): 96 min | Tmax (plasma, 300 mg, oral 300 mg, average of N = 3 profiles, plasma, read-out: Tmax, Average): 40.2 min | Cmax (plasma, 300 mg, oral 300 mg, individual profiles (PMC-09, MON-10, MON-11), plasma, read-out: Cmax): 10500 ng/mL | half-life (plasma, 300 mg, oral 300 mg, individual profiles (PMC-09, MON-10, MON-11), plasma, read-out: Half-life (converted)): 99.6 min | Tmax (plasma, 300 mg, oral 300 mg, individual profiles (PMC-09, MON-10, MON-11), plasma, read-out: Tmax): 30 min | AUC (plasma, 400 mg, oral 400 mg, average of N = 2 profiles, plasma, read-out: AUC, Average): 22200 ng·h/mL | Cmax (plasma, 400 mg, oral 400 mg, average of N = 2 profiles, plasma, read-out: Cmax, Average): 8310 ng/mL | half-life (plasma, 400 mg, oral 400 mg, average of N = 2 profiles, plasma, read-out: Half-life, Average (converted)): 94.2 min | Tmax (plasma, 400 mg, oral 400 mg, average of N = 2 profiles, plasma, read-out: Tmax, Average): 30 min | AUC (plasma, 400 mg, oral 400 mg, individual profiles (MON-11 occasion 2, MON-12), plasma, read-out: AUC): 28500 ng·h/mL | Cmax (plasma, 400 mg, oral 400 mg, individual profiles (MON-11 occasion 2, MON-12), plasma, read-out: Cmax): 8990 ng/mL | half-life (plasma, 400 mg, oral 400 mg, individual profiles (MON-11 occasion 2, MON-12), plasma, read-out: Half-life (converted)): 107 min | Tmax (plasma, 400 mg, oral 400 mg, individual profiles (MON-11 occasion 2, MON-12), plasma, read-out: Tmax): 30 min | AUC (plasma, 500 mg, oral 500 mg, patient MON-11 occasion 3, plasma, read-out: AUC): 40600 ng·h/mL | Cmax (plasma, 500 mg, oral 500 mg, patient MON-11 occasion 3, plasma, read-out: Cmax): 12700 ng/mL | half-life (plasma, 500 mg, oral 500 mg, patient MON-11 occasion 3, plasma, read-out: Half-life (converted)): 119 min | Tmax (plasma, 500 mg, oral 500 mg, patient MON-11 occasion 3, plasma, read-out: Tmax): 30 min | AUC (plasma, 600 mg, oral 600 mg, patient MON-11 occasion 4, plasma, read-out: AUC): 56700 ng·h/mL | Cmax (plasma, 600 mg, oral 600 mg, patient MON-11 occasion 4, plasma, read-out: Cmax): 14400 ng/mL | half-life (plasma, 600 mg, oral 600 mg, patient MON-11 occasion 4, plasma, read-out: Half-life (converted)): 130 min | Tmax (plasma, 600 mg, oral 600 mg, patient MON-11 occasion 4, plasma, read-out: Tmax): 30 min | AUC (plasma, 700 mg, oral 700 mg, patient MON-11 occasion 5, plasma, read-out: AUC): 57600 ng·h/mL
